27 compounds from patent US20240109917A1 (ACTELION PHARMACEUTICALS LTD, priority 2020, published 2024) can be followed below.

pIC50: −log10 of the molar value. A value given as a limit tells only on which side of the number the result lay.

The target of one test is PDGFRβ (Rattus norvegicus (Rat), UniProt Q05030). Nature of the test: PDGFRβ Cellular Assay (PDGFRb P-Y751 HTRF in A10 cells stimulated with PDGF-BB). As to conditions: PDGFR Cellular IC50. The class given is cell-based. A digest of the protocol: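 Phospho-Y751 PDGFRβ was measured by HTRF in lysates of A10 rat cells. Cells received compound for 3 hours before PDGF-BB stimulation (100 ng/mL working stock).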
Chain of PDGFRβ (Q05030 32-1097): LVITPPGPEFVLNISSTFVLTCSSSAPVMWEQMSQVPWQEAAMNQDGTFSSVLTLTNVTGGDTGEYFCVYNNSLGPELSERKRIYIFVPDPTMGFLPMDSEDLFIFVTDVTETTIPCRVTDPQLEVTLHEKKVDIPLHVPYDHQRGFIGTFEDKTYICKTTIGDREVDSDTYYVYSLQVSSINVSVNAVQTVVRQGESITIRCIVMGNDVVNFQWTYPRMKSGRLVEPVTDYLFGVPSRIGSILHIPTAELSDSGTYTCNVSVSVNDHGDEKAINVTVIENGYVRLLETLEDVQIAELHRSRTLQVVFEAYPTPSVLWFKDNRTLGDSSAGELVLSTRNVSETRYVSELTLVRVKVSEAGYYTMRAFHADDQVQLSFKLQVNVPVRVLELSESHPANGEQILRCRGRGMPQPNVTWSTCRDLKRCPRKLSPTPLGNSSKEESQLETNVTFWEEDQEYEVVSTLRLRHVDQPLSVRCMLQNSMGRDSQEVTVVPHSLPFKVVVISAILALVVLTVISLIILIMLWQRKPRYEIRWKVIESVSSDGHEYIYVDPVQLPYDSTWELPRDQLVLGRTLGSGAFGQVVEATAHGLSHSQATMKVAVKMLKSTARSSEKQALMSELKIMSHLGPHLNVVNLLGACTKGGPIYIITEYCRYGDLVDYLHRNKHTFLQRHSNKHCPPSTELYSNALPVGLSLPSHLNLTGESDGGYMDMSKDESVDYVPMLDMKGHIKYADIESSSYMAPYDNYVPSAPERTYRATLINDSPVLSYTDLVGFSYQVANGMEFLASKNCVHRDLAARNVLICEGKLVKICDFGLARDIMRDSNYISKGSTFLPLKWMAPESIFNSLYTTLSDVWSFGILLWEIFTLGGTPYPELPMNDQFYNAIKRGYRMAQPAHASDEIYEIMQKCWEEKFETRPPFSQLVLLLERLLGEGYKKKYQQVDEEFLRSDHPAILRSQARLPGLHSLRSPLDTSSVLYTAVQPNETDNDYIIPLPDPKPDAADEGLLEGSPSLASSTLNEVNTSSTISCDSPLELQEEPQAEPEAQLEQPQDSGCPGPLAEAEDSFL
For orientation: TR-FRET usually uses a lanthanide donor and a delayed reading to cut background.
Broadly, the pIC50 is the negative decadic logarithm of the IC50, by convention in mol/L. `COc1ncc(-c2cn3ncc(C(=O)Nc4cc(NC(=O)CN5CC(C)(C)C5)cnc4C)c3s2)c(OC)n1` [Example 392, 2-(2,4-dimethoxypyrimidin-5-yl)-N-(5-(2-(3,3-dimethylazetidin-1-yl)acetamido)-2-methylpyridin-3-yl)pyrazolo[5,1-b]thiazole-7-carboxamide] gave a pIC50 of 8.32.

With `COc1ncccc1-c1cn2ncc(C(=O)Nc3cc(NC(=O)CN4CCC4)cnc3C)c2s1` [Example 397, N-(5-(2-(azetidin-1-yl)acetamido)-2-methylpyridin-3-yl)-2-(2-methoxypyridin-3-yl)pyrazolo[5,1-b]thiazole-7-carboxamide], the pIC50 is 8.12.

Staying with this test, now noted: read-out: PDGFR Cellular IC50.
With `Cc1ncc(C(=O)NCCN2CCCC2(C)C)cc1NC(=O)c1cnn2cc(-c3cnn(Cc4cc(OCc5ccccc5)no4)c3)sc12` [Example 362, 2-(1-((3-(benzyloxy)isoxazol-5-yl)methyl)-1H-pyrazol-4-yl)-N-(5-((2-(2,2-dimethylpyrrolidin-1-yl)ethyl)carbamoyl)-2-methylpyridin-3-yl)pyrazolo[5,1-b]thiazole-7-carboxamide], the pIC50 is 7.21. For the compound `Cc1ncc(C(=O)NCCN2CCCC2(C)C)cc1NC(=O)c1cnn2cc(-c3cnn(Cc4cc(O)no4)c3)sc12` [Example 363, N-(5-((2-(2,2-dimethylpyrrolidin-1-yl)ethyl)carbamoyl)-2-methylpyridin-3-yl)-2-(1-((3-hydroxyisoxazol-5-yl)methyl)-1H-pyrazol-4-yl)pyrazolo[5,1-b]thiazole-7-carboxamide], the pIC50 was less than 5.70. As for `Cc1ncc(NC(=O)CN2C[C@H](C)O[C@@H](C)C2)cc1NC(=O)c1cnn2cc(-c3cc[nH]c3)sc12` [Example 365, N-(5-(2-(2,6-trans-dimethylmorpholino)acetamido)-2-methylpyridin-3-yl)-2-(1H-pyrrol-3-yl)pyrazolo[5,1-b]thiazole-7-carboxamide], the pIC50 is 8.32. As for `Cc1ncc(NC(=O)CN2CC3CCC(C2)O3)cc1NC(=O)c1cnn2cc(-c3cc[nH]c3)sc12` [Example 366, N-(5-(2-(8-oxa-3-azabicyclo[3.2.1]octan-3-yl)acetamido)-2-methylpyridin-3-yl)-2-(1H-pyrrol-3-yl)pyrazolo[5,1-b]thiazole-7-carboxamide], the pIC50 was 8.11. Consider `COc1ncccc1-c1cn2ncc(C(=O)Nc3cc(NC(=O)CN4CC(C)(C)C4)cnc3C)c2s1` [Example 369, N-(5-(2-(3,3-dimethylazetidin-1-yl)acetamido)-2-methylpyridin-3-yl)-2-(2-methoxypyridin-3-yl)pyrazolo[5,1-b]thiazole-7-carboxamide], for which the pIC50 is 8.80. Turning to `Cc1ncc(NC(=O)CN2C[C@H](CO)OC(C)(C)C2)cc1NC(=O)c1cnn2cc(-c3cnn(C)c3)sc12` [Example 376, (R)—N-(5-(2-(6-(hydroxymethyl)-2,2-dimethylmorpholino)acetamido)-2-methylpyridin-3-yl)-2-(1-methyl-1H-pyrazol-4-yl)pyrazolo[5,1-b]thiazole-7-carboxamide], the pIC50 is 6.81. For the compound `Cc1ncc(NC(=O)CN2C[C@@H](CO)OC(C)(C)C2)cc1NC(=O)c1cnn2cc(-c3cnn(C)c3)sc12` [Example 377, (S)—N-(5-(2-(6-(hydroxymethyl)-2,2-dimethylmorpholino)acetamido)-2-methylpyridin-3-yl)-2-(1-methyl-1H-pyrazol-4-yl)pyrazolo[5,1-b]thiazole-7-carboxamide], the pIC50 was 6.92. The same measure, in the same setting: as for `COc1ncccc1-c1cn2ncc(C(=O)Nc3cc(NC(=O)CN4C[C@H](CO)OC(C)(C)C4)cnc3C)c2s1` [Example 379, (R)—N-(5-(2-(6-(hydroxymethyl)-2,2-dimethylmorpholino)acetamido)-2-methylpyridin-3-yl)-2-(2-methoxypyridin-3-yl)pyrazolo[5,1-b]thiazole-7-carboxamide], the figure is 8.04; as for `COc1ncccc1-c1cn2ncc(C(=O)Nc3cc(NC(=O)CN4C[C@@H](CO)OC(C)(C)C4)cnc3C)c2s1` [Example 380, (S)—N-(5-(2-(6-(hydroxymethyl)-2,2-dimethylmorpholino)acetamido)-2-methylpyridin-3-yl)-2-(2-methoxypyridin-3-yl)pyrazolo[5,1-b]thiazole-7-carboxamide], 8.01; as for `COCC1CN(CC(=O)Nc2cnc(C)c(NC(=O)c3cnn4cc(-c5cnn(C)c5)sc34)c2)CC(C)(C)O1` (stereo not drawn) [Example 383, N-(5-(2-(6-(methoxymethyl)-2,2-dimethylmorpholino)acetamido)-2-methylpyridin-3-yl)-2-(1-methyl-1H-pyrazol-4-yl)pyrazolo[5,1-b]thiazole-7-carboxamide], 7.82. With `COc1ncccc1-c1cn2ncc(C(=O)Nc3cc(C(=O)NCCN4CC(C)(C)C4)cnc3C)c2s1` [Example 387, N-(5-((2-(3,3-dimethylazetidin-1-yl)ethyl)carbamoyl)-2-methylpyridin-3-yl)-2-(2-methoxypyridin-3-yl)pyrazolo[5,1-b]thiazole-7-carboxamide], the pIC50 was 8.16. As to `CCn1nccc1-c1cn2ncc(C(=O)Nc3cc(NC(=O)CN4CC(C)(C)C4)cnc3C)c2s1` [Example 388, N-(5-(2-(3,3-dimethylazetidin-1-yl)acetamido)-2-methylpyridin-3-yl)-2-(1-ethyl-1H-pyrazol-5-yl)pyrazolo[5,1-b]thiazole-7-carboxamide], the pIC50 was 8.29. For `Cc1cnn(C)c1-c1cn2ncc(C(=O)Nc3cc(NC(=O)CN4CC(C)(C)C4)cnc3C)c2s1` [Example 389, 2-(1,4-dimethyl-1H-pyrazol-5-yl)-N-(5-(2-(3,3-dimethylazetidin-1-yl)acetamido)-2-methylpyridin-3-yl)pyrazolo[5,1-b]thiazole-7-carboxamide], the pIC50 is 8.51.

Regarding `Cc1ncc(NC(=O)CN2CC(C)(C)C2)cc1NC(=O)c1cnn2cc(-c3cccnc3C)sc12` [Example 390, N-(5-(2-(3,3-dimethylazetidin-1-yl)acetamido)-2-methylpyridin-3-yl)-2-(2-methylpyridin-3-yl)pyrazolo[5,1-b]thiazole-7-carboxamide], the pIC50 is 8.26. Still for that read-out and setting: under `CCc1ncccc1-c1cn2ncc(C(=O)Nc3cc(NC(=O)CN4CC(C)(C)C4)cnc3C)c2s1` [Example 391, N-(5-(2-(3,3-dimethylazetidin-1-yl)acetamido)-2-methylpyridin-3-yl)-2-(2-ethylpyridin-3-yl)pyrazolo[5,1-b]thiazole-7-carboxamide] stands 7.98; under `COc1cc(-c2cn3ncc(C(=O)Nc4cc(NC(=O)CN5CC(C)(C)C5)cnc4C)c3s2)c(OC)nn1` [Example 393, 2-(3,6-dimethoxypyridazin-4-yl)-N-(5-(2-(3,3-dimethylazetidin-1-1)acetamido)-2-methylpyridin-3-yl)pyrazolo[5,1-b]thiazole-7-carboxamide], 8.46. As for `COc1cccc(-c2cn3ncc(C(=O)Nc4cc(NC(=O)CN5CC(C)(C)C5)cnc4C)c3s2)n1` [Example 394, N-(5-(2-(3,3-dimethylazetidin-1-yl)acetamido)-2-methylpyridin-3-yl)-2-(6-methoxypyridin-2-yl)pyrazolo[5,1-b]thiazole-7-carboxamide], the pIC50 is 8.74. Take `COc1ccc(-c2cn3ncc(C(=O)Nc4cc(NC(=O)CN5CC(C)(C)C5)cnc4C)c3s2)cn1` [Example 395, N-(5-(2-(3,3-dimethylazetidin-1-yl)acetamido)-2-methylpyridin-3-yl)-2-(6-methoxypyridin-3-yl)pyrazolo[5,1-b]thiazole-7-carboxamide]: the pIC50 was 8.21. Regarding `COc1ncccc1-c1cn2ncc(C(=O)Nc3cc(NC(=O)CN4CC(C)(OC)C4)cnc3C)c2s1` [Example 396, N-(5-(2-(3-methoxy-3-methylazetidin-1-yl)acetamido)-2-methylpyridin-3-yl)-2-(2-methoxypyridin-3-yl)pyrazolo[5,1-b]thiazole-7-carboxamide], the pIC50 is 8.37. On to `Cc1ncc(NC(=O)CN2CC(C)(C)C2)cc1NC(=O)c1cnn2cc(-c3cncnc3C)sc12` [Example 398, N-(5-(2-(3,3-dimethylazetidin-1-yl)acetamido)-2-methylpyridin-3-yl)-2-(4-methylpyrimidin-5-yl)pyrazolo[5,1-b]thiazole-7-carboxamide], for which the pIC50 was 6.77.

Take `COc1cnccc1-c1cn2ncc(C(=O)Nc3cc(NC(=O)CN4CC(C)(C)C4)cnc3C)c2s1` [Example 399, N-(5-(2-(3,3-dimethylazetidin-1-yl)acetamido)-2-methylpyridin-3-yl)-2-(3-methoxypyridin-4-yl)pyrazolo[5,1-b]thiazole-7-carboxamide]: the pIC50 is 8.89. `COc1ncccc1-c1cn2ncc(C(=O)Nc3cc(NC(=O)CN4CC(F)C4)cnc3C)c2s1` [Example 402, N-(5-(2-(3-fluoroazetidin-1-yl)acetamido)-2-methylpyridin-3-yl)-2-(2-methoxypyridin-3-yl)pyrazolo[5,1-b]thiazole-7-carboxamide]: the pIC50 was 8.27. On to `COc1ncccc1-c1cn2ncc(C(=O)Nc3cc(NC(=O)CN4CC5(CCOCC5)C4)cnc3C)c2s1` [Example 403, N-(5-(2-(7-oxa-2-azaspiro[3.5]nonan-2-yl)acetamido)-2-methylpyridin-3-yl)-2-(2-methoxypyridin-3-yl)pyrazolo[5,1-b]thiazole-7-carboxamide carboxamide], for which the pIC50 is 8.48. Still for that read-out and setting: under `COc1ncccc1-c1cn2ncc(C(=O)Nc3cc(NC(=O)CN4CC5(COC5)C4)cnc3C)c2s1` [Example 404, N-(5-(2-(2-oxa-6-azaspiro[3.3]heptan-6-yl)acetamido)-2-methylpyridin-3-yl)-2-(2-methoxypyridin-3-yl)pyrazolo[5,1-b]thiazole-7-carboxamide] stands 8.14; under `COc1ncccc1-c1cn2ncc(C(=O)Nc3cc(NC(=O)CN4CC(C)C4)cnc3C)c2s1` [Example 405, 2-(2-methoxypyridin-3-yl)-N-(2-methyl-5-(2-(3-methylazetidin-1-yl)acetamido)pyridin-3-yl)pyrazolo[5,1-b]thiazole-7-carboxamide], 8.42.
